Where two headings read alike, the source gives them in different places.
Experiments:
Serratia marcescens = assay type: cell-based
red blood cells = assay type: cell-based
Protocol: In another assay, the rabbit polyclonal sera may be reacted with treated red blood cells. After washing off unbound antibody, a FITC labeled goat anti-rabbit Fab′2 fragment (anti H+L chains, Caltag) is added. The binding of FITC label to the red blood cells correlates with the amount of acridine bound to the red blood cell surface, and is assessed by FACScan™ analysis (Becton, Dickinson and Co., NJ). The relative modification of the red blood cells is determined from the FACScan™ mean fluorescence value.
A 20 mL sample of leukoreduced whole blood (Blood Source, Sacramento, Calif.) was centrifuged at 4,100×g for 5 minutes at room temperature in each of four 50 mL centrifuge tubes. The supernatant was removed from each tube to provide red cell concentrate (RCC). […] For each washed RCC, cells were resuspended in 5 mL of the solution used for washing. This is now referred to as the RBC test sample. […] These samples were incubated for 20 hours at room temperature. After incubation, the RBC were washed in BBS (Blood Bank Saline, 0.9% saline, unbuffered, Fisher Scientific) and were diluted to a final hematocrit of 4%. A 25 μL aliquot of each was mixed with 15 μL of rabbit polyclonal anti-acridine sera diluted 1:100 in BBS and the mixture was incubated at 37° C. for 30 minutes. The cells were subsequently washed with 1.5 mL BBS. After washing was complete, the cells were mixed with 50 μL of FITC labeled goat anti-rabbit Fab′2 fragment (1:64 dilution in BBS) and incubated at 37° C. for 30 minutes. […] Note that the quenching improves as glutathione is neutralized with increasing amounts of sodium hydroxide.
The FACScan analysis of the binding of rabbit anti-acridine sera to treated red cells was used to assess a variety of quenching conditions. […] The tables represent data from two different experiments, each with samples treated under standard conditions or with 20 mM neutralized glutathione. […] The data within an experiment provides the relative efficacy of the various treatments. Because the assay may depend on the lot of red blood cells used, the absolute values of mean fluorescence may vary from one study to the next, such that relative values should only be compared within a given experiment. […] Neutralized glutathione at 20 mM results in close to background levels.
An untreated control sample as well as a standard sample (co-addition of 2 mM acidic glutathione with 0.2 mM PIC-1) were also assessed.
Full units of red cell concentrates (Interstate Blood Bank, Inc., Memphis, Tenn.) were leukoreduced. A volume of 200 mL of this RCC (80% hematocrit) was mixed with 94 mL of Erythrosol or 100 mL of Adsol (Baxter Healthcare Corp., Deerfield, Ill.) as control (unit 1). A volume of 20 mL 8% dextrose was used to dissolve PIC-1 (mg) and acid glutathione (mg) and added to one unit to provide 0.2 mM PIC-1 and 2 mM glutathione (unit 2). […] For the glutathione, 1.2 mL of 10 N NaOH was added (2 equivalents). The PIC-1 was mixed with the unit, followed 1 minute later (unit 3) or 5 minutes later (unit 4) by glutathione. For unit 5, neutralized glutathione was mixed first, followed 10 minutes later by the PIC-1. […] All units were mixed by grasping the ends of the blood bag and mixing in a FIG. 8 motion 30 times. These were then incubated at room temperature for 20 hours total. A compound adsorption device (CAD), comprising a polymeric resin contained within a mesh pouch, was used for all but the control sample. This device is intended to remove residual PIC-1, PIC-1 breakdown products, and glutathione from the samples. Samples were incubated for 8 hours, then transferred to a second blood bag containing the CAD and incubated for an additional 12 hours. Following the room temperature incubation, samples were transferred to a refrigerator (4° C.) and stored up to 43 days.

[1] = 0.2 mM PIC-1+2 mM glutathione, 0.9 eq base, formulated together
[2] = 0.2 mM PIC-1+20 mM glutathione, 0 eq base, formulated together
[3] = 0.2 mM PIC-1+20 mM glutathione, 0.9 eq base, formulated together (PIC-1 precipitated)
[4] = 0.2 mM PIC-1+20 mM glutathione, 1.5 eq base, formulated together (PIC-1 precipitated)
[5] = 0.2 mM PIC-1+20 mM glutathione, 2 eq base, formulated together (PIC-1 precipitated)
[6] = 0.2 mM PIC-1 first, 20 mM glutathione+2 eq base shortly after (sequential)
[7] = Table 2B: 0.2 mM PIC-1, then 20 mM glutathione+2 eq base after 1 min
[8] = Table 2B: 0.2 mM PIC-1, then 20 mM glutathione+2 eq base after 5 min
[9] = Table 2B: 0.2 mM PIC-1, then 20 mM glutathione+2 eq base after 10 min
[10] = Table 2B: 0.2 mM PIC-1, then 20 mM glutathione+2 eq base after 20 min
[11] = Table 2B: 0.2 mM PIC-1 and 2 mM glutathione, 0 eq base, simultaneous
[12] = Table 2B: 0.2 mM PIC-1 and 20 mM glutathione, 0 eq base, simultaneous
[13] = Table 2B: 20 mM glutathione+2 eq base, then 0.2 mM PIC-1 after 1 min
[14] = Table 2B: 20 mM glutathione+2 eq base, then 0.2 mM PIC-1 after 10 min
[15] = Table 5A: 0.2 mM PIC-1, then 20 mM GSH+2 eq base after 1 min
[16] = Table 5A: 10 mM Cys+10 mM GSH, 2 eq base each, then 0.2 mM PIC-1 after 10 min
[17] = Table 5A: 15 mM Cys+5 mM GSH, 2 eq base each, then 0.2 mM PIC-1 after 10 min
[18] = Table 5A: 20 mM Cys+2 eq base, then 0.2 mM PIC-1 after 10 min
[19] = Table 5A: 20 mM GSH+2 eq base, then 0.2 mM PIC-1 after 10 min
[20] = Table 5B: 0.2 mM PIC-1+2 mM GSH, 0 eq base, no delay
[21] = Table 5B: 5 mM Cys+2 eq base, then 0.2 mM PIC-1 after 5 min
[22] = Table 5B: 5 mM Cys+2 eq base, then 0.2 mM PIC-1 after 10 min
[23] = Table 5B: 5 mM Cys+2 eq base, then 0.2 mM PIC-1 after 20 min
[24] = Table 5B: 10 mM Cys+2 eq base, then 0.2 mM PIC-1 after 10 min
[25] = Table 5B: 15 mM Cys+2 eq base, then 0.2 mM PIC-1 after 10 min
[26] = Table 5B: 20 mM Cys+2 eq base, then 0.2 mM PIC-1 after 5 min
[27] = Table 5B: 20 mM Cys+2 eq base, then 0.2 mM PIC-1 after 10 min
[28] = Table 5B: 20 mM GSH+2 eq base, then 0.2 mM PIC-1 after 10 min
[29] = Table 5B: […] Cys+2 eq base, then 0.2 mM PIC-1 after 10 min

O=C(CCNc1c2ccccc2nc2ccccc12)OCCN(CCCl)CCCl [PIC-1]
Log S. marcescens reduction (Serratia marcescens; [1]): 4.27 Log | Log S. marcescens titer (Serratia marcescens; [1]): 2.8 Log | Log S. marcescens reduction (Serratia marcescens; [2]): 2.40 Log | Log S. marcescens titer (Serratia marcescens; [2]): 4.6 Log | Log S. marcescens reduction (Serratia marcescens; [3]): 2.26 Log | Log S. marcescens titer (Serratia marcescens; [3]): 4.8 Log | Log S. marcescens reduction (Serratia marcescens; [4]): 1.66 Log | Log S. marcescens titer (Serratia marcescens; [4]): 5.4 Log | Log S. marcescens reduction (Serratia marcescens; [5]): 0.76 Log | Log S. marcescens titer (Serratia marcescens; [5]): 6.3 Log | Log S. marcescens reduction (Serratia marcescens; [6]): 3.02 Log | Log S. marcescens titer (Serratia marcescens; [6]): 4.0 Log | Log S. marcescens reduction (Serratia marcescens; [7]): 3.36 Log | Log S. marcescens titer (Serratia marcescens; [7]): 3.40 Log | Log S. marcescens reduction (Serratia marcescens; [8]): 3.89 Log | Log S. marcescens titer (Serratia marcescens; [8]): 2.87 Log | Log S. marcescens reduction (Serratia marcescens; [9]): 4.96 Log | Log S. marcescens titer (Serratia marcescens; [9]): 1.80 Log | Log S. marcescens reduction (Serratia marcescens; [10]): 6.76 Log | Log S. marcescens titer (Serratia marcescens; [10]): 0.00 Log | Log S. marcescens reduction (Serratia marcescens; [11]): 5.25 Log | Log S. marcescens titer (Serratia marcescens; [11]): 1.51 Log | Log S. marcescens reduction (Serratia marcescens; [12]): 0.71 Log | Log S. marcescens titer (Serratia marcescens; [12]): 6.05 Log | Log S. marcescens reduction (Serratia marcescens; [13]): 3.66 Log | Log S. marcescens titer (Serratia marcescens; [13]): 3.10 Log | Log S. marcescens reduction (Serratia marcescens; [14]): 3.68 Log | Log S. marcescens titer (Serratia marcescens; [14]): 3.08 Log | Log S. marcescens reduction (Serratia marcescens; [15]): 2.7 Log | Log S. marcescens titer (Serratia marcescens; [15]): 4.8 Log | Log S. marcescens reduction (Serratia marcescens; [16]): 3.0 Log | Log S. marcescens titer (Serratia marcescens; [16]): 4.5 Log | Log S. marcescens reduction (Serratia marcescens; [17]): 3.7 Log | Log S. marcescens titer (Serratia marcescens; [17]): 3.8 Log | Log S. marcescens reduction (Serratia marcescens; [18]): 3.1 Log | Log S. marcescens titer (Serratia marcescens; [18]): 4.4 Log | Log S. marcescens reduction (Serratia marcescens; [19]): 3.4 Log | Log S. marcescens titer (Serratia marcescens; [19]): 4.1 Log | Log S. marcescens reduction (Serratia marcescens; [20]): 4.1 Log | Log S. marcescens titer (Serratia marcescens; [20]): 3.5 Log | Log S. marcescens reduction (Serratia marcescens; [21]): 3.2 Log | Log S. marcescens titer (Serratia marcescens; [21]): 4.4 Log | Log S. marcescens reduction (Serratia marcescens; [22]): 3.2 Log | Log S. marcescens titer (Serratia marcescens; [22]): 4.4 Log | Log S. marcescens reduction (Serratia marcescens; [23]): 2.9 Log | Log S. marcescens titer (Serratia marcescens; [23]): 4.7 Log | Log S. marcescens reduction (Serratia marcescens; [24]): 2.7 Log | Log S. marcescens titer (Serratia marcescens; [24]): 4.9 Log | Log S. marcescens reduction (Serratia marcescens; [25]): 3.1 Log | Log S. marcescens titer (Serratia marcescens; [25]): 4.5 Log | Log S. marcescens reduction (Serratia marcescens; [26]): 3.2 Log | Log S. marcescens titer (Serratia marcescens; [26]): 4.4 Log | Log S. marcescens reduction (Serratia marcescens; [27]): 3.0 Log | Log S. marcescens titer (Serratia marcescens; [27]): 4.6 Log | Log S. marcescens reduction (Serratia marcescens; [28]): 3.2 Log | Log S. marcescens titer (Serratia marcescens; [28]): 4.4 Log | Log S. marcescens reduction (Serratia marcescens; [29]): 3.7 Log | Log S. marcescens titer (Serratia marcescens; [29]): 3.9 Log | log inactivation (Serratia marcescens; all conditions of Tables 5A, 5B, 5C (cysteine and/or glutathione, 0.2 mM PIC-1)): at least 3 log | inactivation difference from the standard condition (Serratia marcescens; cysteine or glutathione quenching, Tables 5A-5C): 1-1.5 log | mean fluorescence (red blood cells; 16C day 0.8, unit 2: standard 0.2 mM PIC-1+2 mM GSH): 284 | mean fluorescence (red blood cells; 16C day 0.8, unit 3: 0.2 mM PIC-1, 1' delay, 20 mM GSH+2 eq base): 20.1 | mean fluorescence (red blood cells; 16C day 0.8, unit 4: 0.2 mM PIC-1, 5' delay, 20 mM GSH+2 eq base): 46.0 | mean fluorescence (red blood cells; 16C day 0.8, unit 5: 20 mM GSH+2 eq base, 10' delay, 0.2 mM PIC-1): 20.0 | mean fluorescence (red blood cells; 16C day 2, unit 2: standard 0.2 mM PIC-1+2 mM GSH): 193.5 | mean fluorescence (red blood cells; 16C day 2, unit 3: 0.2 mM PIC-1, 1' delay, 20 mM GSH+2 eq base): 14.58 | mean fluorescence (red blood cells; 16C day 2, unit 4: 0.2 mM PIC-1, 5' delay, 20 mM GSH+2 eq base): 34.07 | mean fluorescence (red blood cells; 16C day 2, unit 5: 20 mM GSH+2 eq base, 10' delay, 0.2 mM PIC-1): 12.31 | mean fluorescence (red blood cells; 16C day 7, unit 2: standard 0.2 mM PIC-1+2 mM GSH): 142.1 | mean fluorescence (red blood cells; 16C day 7, unit 3: 0.2 mM PIC-1, 1' delay, 20 mM GSH+2 eq base): 4.96 | mean fluorescence (red blood cells; 16C day 7, unit 4: 0.2 mM PIC-1, 5' delay, 20 mM GSH+2 eq base): 18.84 | mean fluorescence (red blood cells; 16C day 7, unit 5: 20 mM GSH+2 eq base, 10' delay, 0.2 mM PIC-1): 5.34

Source: patent US7655392B2, “Quenching methods for red blood cell inactivation process” (priority 2004, dated 2010)
